Assay type in all cases: biochemical
The target in one test is T1, PI3Kδ (Homo sapiens, UniProt O00329).
T1 construct: made in house
Description: TR-FRET enzymatic activity assay, PI3Kδ. The note with it: Table 2; TR-FRET, 2x Km ATP, 30 minutes at 25° C.

In the next test the target is T2, PI3Kβ (Homo sapiens, UniProt P42338).
T2 construct: made in house
Description: TR-FRET enzymatic activity assay, PI3Kβ. The note with it: Table 2; TR-FRET, 2x Km ATP, 30 minutes at 25° C.

In another test the target is T3, PI3Kγ (Homo sapiens, UniProt P48736).
T3 construct: made in house
Description: TR-FRET enzymatic activity assay, PI3Kγ. The conditions noted are these: read-out: PI3Kγ IC50. The method, boiled down:
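Enzymatic activity against the PI3K isoforms was measured using a time-resolved fluorescence resonance energy transfer (TR-FRET) assay.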
For orientation: Time-resolved FRET reads energy transfer from a long-lived donor to a nearby acceptor.

Where [1] appears, read: Table 2, TR-FRET, 2x Km ATP, 30 minutes at 25° C.

Like-named read-outs stand apart in the source and are kept apart here.

T1 sequence (O00329 whole entry): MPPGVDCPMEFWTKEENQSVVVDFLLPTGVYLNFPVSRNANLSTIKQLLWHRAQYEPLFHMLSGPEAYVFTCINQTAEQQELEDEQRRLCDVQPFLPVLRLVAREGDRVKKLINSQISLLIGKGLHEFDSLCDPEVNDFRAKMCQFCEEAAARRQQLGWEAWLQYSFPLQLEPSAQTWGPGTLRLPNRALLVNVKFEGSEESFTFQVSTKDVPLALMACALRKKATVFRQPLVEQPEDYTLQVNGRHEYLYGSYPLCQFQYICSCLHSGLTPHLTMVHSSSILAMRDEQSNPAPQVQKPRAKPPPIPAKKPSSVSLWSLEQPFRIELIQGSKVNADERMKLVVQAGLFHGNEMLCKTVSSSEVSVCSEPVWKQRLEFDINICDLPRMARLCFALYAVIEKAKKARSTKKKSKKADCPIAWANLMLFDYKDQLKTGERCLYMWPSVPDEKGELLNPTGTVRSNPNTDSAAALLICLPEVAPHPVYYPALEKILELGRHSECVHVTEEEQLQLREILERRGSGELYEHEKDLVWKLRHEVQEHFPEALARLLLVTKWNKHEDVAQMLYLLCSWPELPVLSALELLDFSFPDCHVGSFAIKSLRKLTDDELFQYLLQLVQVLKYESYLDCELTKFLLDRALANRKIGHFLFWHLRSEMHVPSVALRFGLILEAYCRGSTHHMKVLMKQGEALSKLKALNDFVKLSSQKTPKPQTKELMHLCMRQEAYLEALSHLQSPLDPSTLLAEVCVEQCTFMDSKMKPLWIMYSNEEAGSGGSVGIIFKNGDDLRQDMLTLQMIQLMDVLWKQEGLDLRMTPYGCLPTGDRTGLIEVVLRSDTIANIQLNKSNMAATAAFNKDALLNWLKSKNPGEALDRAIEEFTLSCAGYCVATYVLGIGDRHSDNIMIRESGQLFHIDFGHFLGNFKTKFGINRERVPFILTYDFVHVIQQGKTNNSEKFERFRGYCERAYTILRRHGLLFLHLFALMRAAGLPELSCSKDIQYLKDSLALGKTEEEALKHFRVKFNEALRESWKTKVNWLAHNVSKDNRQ
T1 sequence (P27986 whole entry partner): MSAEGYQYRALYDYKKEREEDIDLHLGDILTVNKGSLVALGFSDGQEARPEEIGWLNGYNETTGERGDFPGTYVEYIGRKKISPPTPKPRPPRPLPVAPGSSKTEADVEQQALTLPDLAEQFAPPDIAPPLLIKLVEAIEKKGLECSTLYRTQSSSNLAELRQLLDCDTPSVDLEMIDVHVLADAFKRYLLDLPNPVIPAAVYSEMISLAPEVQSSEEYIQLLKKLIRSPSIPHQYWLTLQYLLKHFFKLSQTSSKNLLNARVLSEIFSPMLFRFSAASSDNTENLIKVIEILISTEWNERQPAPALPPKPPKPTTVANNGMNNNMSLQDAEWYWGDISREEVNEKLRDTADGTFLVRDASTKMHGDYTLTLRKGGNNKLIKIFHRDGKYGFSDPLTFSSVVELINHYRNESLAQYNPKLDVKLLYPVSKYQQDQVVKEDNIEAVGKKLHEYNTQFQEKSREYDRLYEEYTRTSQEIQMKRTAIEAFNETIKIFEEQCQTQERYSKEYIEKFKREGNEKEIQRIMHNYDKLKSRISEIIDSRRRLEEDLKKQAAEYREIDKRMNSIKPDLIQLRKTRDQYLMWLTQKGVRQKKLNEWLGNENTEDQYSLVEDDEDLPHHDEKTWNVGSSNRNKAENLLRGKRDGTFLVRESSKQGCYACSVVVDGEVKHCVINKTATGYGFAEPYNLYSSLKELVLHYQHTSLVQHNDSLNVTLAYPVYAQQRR
T2 sequence (P42338 whole entry): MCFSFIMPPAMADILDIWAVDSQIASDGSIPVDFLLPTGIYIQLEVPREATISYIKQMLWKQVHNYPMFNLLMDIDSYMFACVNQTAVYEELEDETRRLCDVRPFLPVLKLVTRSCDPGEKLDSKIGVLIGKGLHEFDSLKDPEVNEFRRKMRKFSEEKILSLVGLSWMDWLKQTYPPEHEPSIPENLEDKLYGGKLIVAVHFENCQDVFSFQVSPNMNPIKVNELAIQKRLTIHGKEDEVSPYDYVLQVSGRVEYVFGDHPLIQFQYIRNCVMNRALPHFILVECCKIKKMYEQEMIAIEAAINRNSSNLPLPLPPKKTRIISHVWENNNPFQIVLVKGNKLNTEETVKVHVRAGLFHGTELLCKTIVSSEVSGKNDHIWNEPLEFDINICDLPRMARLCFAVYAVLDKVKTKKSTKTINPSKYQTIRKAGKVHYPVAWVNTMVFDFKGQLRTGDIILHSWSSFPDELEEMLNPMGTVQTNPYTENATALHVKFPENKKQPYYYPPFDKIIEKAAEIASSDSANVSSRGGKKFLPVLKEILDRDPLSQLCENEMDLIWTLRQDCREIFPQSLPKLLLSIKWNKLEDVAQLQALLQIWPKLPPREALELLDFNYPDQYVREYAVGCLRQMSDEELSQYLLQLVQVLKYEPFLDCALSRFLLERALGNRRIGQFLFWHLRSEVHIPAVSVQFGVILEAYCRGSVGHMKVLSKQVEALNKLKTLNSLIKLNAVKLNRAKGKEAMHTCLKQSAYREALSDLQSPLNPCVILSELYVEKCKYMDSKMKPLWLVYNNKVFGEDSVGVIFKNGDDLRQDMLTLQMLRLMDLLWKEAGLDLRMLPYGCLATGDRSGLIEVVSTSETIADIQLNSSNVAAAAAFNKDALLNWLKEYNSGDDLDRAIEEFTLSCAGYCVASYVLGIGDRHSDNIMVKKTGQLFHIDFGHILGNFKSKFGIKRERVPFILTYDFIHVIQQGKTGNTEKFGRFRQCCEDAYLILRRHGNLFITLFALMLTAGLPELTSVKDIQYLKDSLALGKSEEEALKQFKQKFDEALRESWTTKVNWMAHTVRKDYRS
T2 sequence (P27986 whole entry partner): as the sequence (P27986 whole entry partner) above
T3 sequence (P48736 whole entry): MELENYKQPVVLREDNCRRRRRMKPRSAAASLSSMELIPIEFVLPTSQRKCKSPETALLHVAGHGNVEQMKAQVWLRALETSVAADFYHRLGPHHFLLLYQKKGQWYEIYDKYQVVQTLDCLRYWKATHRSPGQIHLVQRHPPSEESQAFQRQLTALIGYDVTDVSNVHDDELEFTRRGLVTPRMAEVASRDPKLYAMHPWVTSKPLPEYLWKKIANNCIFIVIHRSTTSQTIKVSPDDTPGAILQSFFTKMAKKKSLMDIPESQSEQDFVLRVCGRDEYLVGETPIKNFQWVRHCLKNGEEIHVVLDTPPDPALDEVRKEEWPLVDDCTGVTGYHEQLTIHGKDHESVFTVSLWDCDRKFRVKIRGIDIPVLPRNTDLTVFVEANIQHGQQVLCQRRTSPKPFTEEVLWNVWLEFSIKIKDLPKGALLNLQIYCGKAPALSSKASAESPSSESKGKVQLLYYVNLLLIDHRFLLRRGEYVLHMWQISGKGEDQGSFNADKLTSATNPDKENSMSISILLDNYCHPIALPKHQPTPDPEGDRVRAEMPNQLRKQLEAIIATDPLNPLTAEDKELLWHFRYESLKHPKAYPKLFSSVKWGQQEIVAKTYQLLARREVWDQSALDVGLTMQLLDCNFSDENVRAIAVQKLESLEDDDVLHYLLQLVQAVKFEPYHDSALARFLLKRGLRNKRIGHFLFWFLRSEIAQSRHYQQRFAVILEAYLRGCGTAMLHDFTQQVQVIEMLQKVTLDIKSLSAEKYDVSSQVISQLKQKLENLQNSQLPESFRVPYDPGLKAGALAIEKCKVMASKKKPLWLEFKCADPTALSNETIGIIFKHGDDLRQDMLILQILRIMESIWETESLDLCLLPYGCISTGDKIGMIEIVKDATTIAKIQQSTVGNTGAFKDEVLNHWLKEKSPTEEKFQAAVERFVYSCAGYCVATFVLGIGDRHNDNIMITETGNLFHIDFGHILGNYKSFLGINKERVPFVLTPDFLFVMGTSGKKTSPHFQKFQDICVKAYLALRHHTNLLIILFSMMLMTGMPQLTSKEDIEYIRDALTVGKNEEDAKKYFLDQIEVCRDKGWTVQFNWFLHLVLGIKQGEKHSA

Turning to `C[C@H](Nc1nc(N)nc(N)c1Cl)c1nc2c(Cl)ccc(Cl)c2c(=O)n1-c1cc[nH]n1` [Compound 69, (S)-5,8-dichloro-2-(1-((2,6-diamino-5-chloropyrimidin-4-yl)amino)ethyl)-3-(1H-pyrazol-3-yl)quinazolin-4(3H)-one], the IC50 against PI3Kδ is 6 nM; against PI3Kβ, 13 nM; at PI3Kγ, > 10000 nM.

For `Nc1nc(N)c(Cl)c(N[C@H](c2nc3c(F)ccc(Cl)c3c(=O)n2-c2cc[nH]n2)C2CC2)n1` [Compound 70, (S)-5-chloro-2-(cyclopropyl((2,6-diamino-5-chloropyrimidin-4-yl)amino)methyl)-8-fluoro-3-(1H-pyrazol-3-yl)quinazolin-4(3H)-one], the IC50 is 14 nM on PI3Kδ, 30 nM against PI3Kβ and > 10000 nM at PI3Kγ.

Consider `Nc1nc(N)c(Cl)c(N[C@H](c2nc3c(Cl)ccc(Cl)c3c(=O)n2-c2cc[nH]n2)C2CC2)n1` [Compound 71, (S)-5,8-dichloro-2-(cyclopropyl((2,6-diamino-5-chloropyrimidin-4-yl)amino)methyl)-3-(1H-pyrazol-3-yl)quinazolin-4(3H)-one], for which the 50% inhibitory concentration (IC50) against PI3Kδ was 13 nM; on PI3Kβ, 38 nM; at PI3Kγ, > 10000 nM.

For `C[C@H](Nc1ncnc(N)c1C#Cc1ccc(F)cn1)c1nc2cccc(Cl)c2c(=O)n1-c1cc[nH]n1` [Compound 72, (S)-2-(1-((6-amino-5-((5-fluoropyridin-2-yl)ethynyl)pyrimidin-4-yl)amino)ethyl)-5-chloro-3-(1H-pyrazol-3-yl)quinazolin-4(3H)-one], the IC50 against PI3Kδ stood at 0.5 nM; against PI3Kβ it was 4 nM; at PI3Kγ (setting [1]), 4000 nM.

For the compound `CC[C@H](Nc1ncnc2scnc12)c1nc2cccc(C#N)c2c(=O)n1-c1cc[nH]n1` [Compound 73, (S)-4-oxo-3-(1H-pyrazol-3-yl)-2-(1-(thiazolo[5,4-d]pyrimidin-7-ylamino)propyl)-3,4-dihydroquinazoline-5-carbonitrile], the concentration for half-maximal inhibition (IC50) against PI3Kδ is 18 nM; on PI3Kβ, 95 nM; at PI3Kγ it was > 10000 nM.

Turning to `CC[C@H](Nc1ncnc2scnc12)c1nc2c(C#N)cccc2c(=O)n1-c1cc[nH]n1` [Compound 74, (S)-4-oxo-3-(1H-pyrazol-3-yl)-2-(1-(thiazolo[5,4-d]pyrimidin-7-ylamino)propyl)-3,4-dihydroquinazoline-8-carbonitrile], the results for the IC50 against PI3Kδ, on PI3Kβ and on PI3Kγ were 5 nM, 20 nM and > 10000 nM, respectively.

For the compound `CC[C@H](Nc1nc(N)nc(N)c1C#N)c1nc2c(C#N)cccc2c(=O)n1-c1cc[nH]n1` [Compound 75, (S)-2-(1-((2,6-diamino-5-cyanopyrimidin-4-yl)amino)propyl)-4-oxo-3-(1H-pyrazol-3-yl)-3,4-dihydroquinazoline-8-carbonitrile], the IC50 at PI3Kδ was 3 nM; at PI3Kβ, 1 nM; on PI3Kγ (setting [1]), 5100 nM.

Consider `CC[C@H](Nc1nc(N)nc(C)c1C#N)c1nc2c(C#N)cccc2c(=O)n1-c1cc[nH]n1` [Compound 76, (S)-2-(1-((2-amino-5-cyano-6-methylpyrimidin-4-yl)amino)propyl)-4-oxo-3-(1H-pyrazol-3-yl)-3,4-dihydroquinazoline-8-carbonitrile], for which the concentration for half-maximal inhibition (IC50) was determined as 2 nM on PI3Kδ, 0.6 nM against PI3Kβ and 6300 nM at PI3Kγ (setting [1]).

As to `CC[C@H](Nc1ncnc2scnc12)c1nc2cccc(Cl)c2c(=O)n1-c1n[nH]cc1Br` [Compound 77, (S)-3-(4-bromo-1H-pyrazol-3-yl)-5-chloro-2-(1-(thiazolo[5,4-d]pyrimidin-7-ylamino)propyl)quinazolin-4(3H)-one], the IC50 amounted to 5 nM against PI3Kδ, 140 nM against PI3Kβ and 1700 nM at PI3Kγ (setting [1]).

Consider `CC[C@H](Nc1nc(N)nc(N)c1Cl)c1nc2c(C#N)cccc2c(=O)n1-c1cc[nH]n1` [Compound 78, (S)-2-(1-((2,6-diamino-5-chloropyrimidin-4-yl)amino)propyl)-4-oxo-3-(1H-pyrazol-3-yl)-3,4-dihydroquinazoline-8-carbonitrile], for which the IC50 on PI3Kδ was 53 nM; on PI3Kβ, 190 nM; on PI3Kγ, > 10000 nM.

On to `CC[C@H](Nc1nc(N)nc2[nH]nc(Br)c12)c1nc2cccc(C#N)c2c(=O)n1-c1cn[nH]c1` [Compound 79, (S)-2-(1-((6-amino-3-bromo-1H-pyrazolo[3,4-d]pyrimidin-4-yl)amino)propyl)-4-oxo-3-(1H-pyrazol-4-yl)-3,4-dihydroquinazoline-5-carbonitrile], for which the concentration for half-maximal inhibition (IC50) turned out to be 340 nM on PI3Kδ, 650 nM on PI3Kβ and 9000 nM at PI3Kγ (setting [1]).

Regarding `CC[C@H](Nc1nc(N)nc2[nH]nc(Br)c12)c1nc2c(C#N)cccc2c(=O)n1-c1cc[nH]n1` [Compound 80, (S)-2-(1-((6-amino-3-bromo-1H-pyrazolo[3,4-d]pyrimidin-4-yl)amino)propyl)-4-oxo-3-(1H-pyrazol-3-yl)-3,4-dihydroquinazoline-8-carbonitrile], the values for the IC50 at PI3Kδ, against PI3Kβ and on PI3Kγ were 35 nM, 22 nM and > 10000 nM, respectively.

Take `CC[C@H](Nc1nc(N)nc2[nH]nc(Br)c12)c1nc2c(Cl)ccc(Cl)c2c(=O)n1-c1cc[nH]n1` [Compound 81, (S)-2-(1-((6-amino-3-bromo-1H-pyrazolo[3,4-d]pyrimidin-4-yl)amino)propyl)-5,8-dichloro-3-(1H-pyrazol-3-yl)quinazolin-4(3H)-one]: the IC50 at PI3Kδ was 16 nM; at PI3Kβ, 12 nM; at PI3Kγ, > 10000 nM.

As to `CC[C@H](Nc1nc(Cl)nc2[nH]ncc12)c1nc2c(Cl)ccc(Cl)c2c(=O)n1-c1cc[nH]n1` [Compound 82, (S)-5,8-dichloro-2-(1-((6-chloro-1H-pyrazolo[3,4-d]pyrimidin-4-yl)amino)propyl)-3-(1H-pyrazol-3-yl)quinazolin-4(3H)-one], the IC50 on PI3Kδ was 4100 nM; against PI3Kβ, 4700 nM; on PI3Kγ, > 10000 nM.

Consider `CC[C@H](Nc1nc(N)nc(N)c1C#N)c1nc2cccc(Cl)c2c(=O)n1-c1n[nH]cc1Br` [Compound 83, (S)-2,4-diamino-6-((1-(3-(4-bromo-1H-pyrazol-3-yl)-5-chloro-4-oxo-3,4-dihydroquinazolin-2-yl)propyl)amino)pyrimidine-5-carbonitrile], for which the values for the half-inhibitory concentration (IC50) at PI3Kδ, at PI3Kβ and on PI3Kγ (setting [1]) were 1 nM, 13 nM and 240 nM, respectively.

In the case of `C[C@H](Nc1nc(N)nc(N)c1C#N)c1nc2cccc(Cl)c2c(=O)n1-c1n[nH]cc1Br` [Compound 84, (S)-2,4-diamino-6-((1-(3-(4-bromo-1H-pyrazol-3-yl)-5-chloro-4-oxo-3,4-dihydroquinazolin-2-yl)ethyl)amino)pyrimidine-5-carbonitrile], the IC50 is 0.4 nM against PI3Kδ, 8 nM on PI3Kβ and 93 nM on PI3Kγ (setting [1]).

As to `C[C@H](Nc1ncnc2scnc12)c1nc2c(Cl)ccc(Cl)c2c(=O)n1-c1n[nH]cc1Br` [Compound 85, (S)-3-(4-bromo-1H-pyrazol-3-yl)-5,8-dichloro-2-(1-(thiazolo[5,4-d]pyrimidin-7-ylamino)ethyl)quinazolin-4(3H)-one], the concentration for half-maximal inhibition (IC50) against PI3Kδ amounted to 4 nM; against PI3Kβ, 170 nM; on PI3Kγ (setting [1]), 9000 nM.

The term IC50 denotes the concentration that inhibits the measured activity by half.

The values are drawn from patent US10308639B2, “Phosphatidylinositol 3-kinase inhibitors” (Gilead Sciences, Inc., priority 2014, dated 2019).
